Reference: US9951088B2, “D2 receptor modulators and methods of use thereof in the treatment of diseases and disorders” (SUNOVION PHARMACEUTICALS INC., priority 2012, dated 2018)

Columns and labels:
[1] = target: T1, long isoform of human D2 receptor (Homo sapiens, UniProt P14416); assay: Arrestin Antagonist Assay (DRD2L PathHunter CHO-K1 cells, vs EC80 dopamine)
[2] = target: T1, long isoform of human D2 receptor; assay: cAMP HTRF Agonist Assay (DRD2L PathHunter CHO-K1 cells, forskolin-stimulated)
Experimental: Cell Lines: Activities of the compounds were assessed using a Chinese Hamster Ovary (CHO—K1) cell line that recombinantly expressed the long isoform of human D2 receptor (DRD2L PathHunter cells). The D2 receptor DNA sequence was modified to contain a “ProLink” at its C-terminus which allowed complementation with an “enzyme acceptor” (EA)-tagged β-arrestin protein. The recruitment of the O-arrestin by the D2 receptor led to complementation of the ProLink and EA and formation of active β-galactosidase which generated a D2-specific signal that was measured. The cAMP assay was measured in the same D2-expressing cell line. The D2 receptor inhibited cAMP formation so that the basal levels of cAMP were increased by the addition of an adenylate cyclase stimulator, forskolin.
cAMP HTRF Agonist Assay: Two days prior to testing, a vial of high density stock of DRD2L PathHunter cells was thawed, and cells were diluted into 10 mL of growth media (Ham's F12/10% HI FBS/1% PSG) and used to seed a T225 flask containing 50 mL of growth media. Cells were cultured for 2 days.
On the day of the assay, cells were dissociated in 5 mL cell dissociation buffer (enzyme free—Invitrogen) for 10-15 minutes at 37° C. Dissociated cells were diluted with 10 mL of growth media and counted. Cell counts were routinely ˜2×10^7 per T225. Cells were then pelleted at 1500 rpm for 5 min. Supernatant was aspirated, and cells were re-suspended in HBSS/20 mM Hepes, pH 7.4 to a cell density of 1×10^6/mL.
cAMP levels were determined using the Cisbio HTRF method. HRTF reagents (cAMP-HTRF acceptor fluorophore (d2) conjugate and cryptate-labeled anti-cAMP antibody) were prepared according to maunfacturers instructions. 5 μL of each were added to each well of an assay plate and incubated for 1 h at RT. The plate was then read on an Envision reader using the HTRF protocol, and data were exported for analysis.
(§1) The agonist Emax results were expressed as a percent of the dopamine control response ((measured specific response/control specific agonist response)×100) obtained in the presence of test article. The EC50 values (concentration producing a half-maximal specific response) were determined by non-linear regression analysis of the concentration-response curves.

[3] = target: T1, long isoform of human D2 receptor; assay: Arrestin Agonist Assay (DRD2L PathHunter CHO-K1 cells, β-arrestin recruitment)
Experimental: Cell Lines: Activities of the compounds were assessed using a Chinese Hamster Ovary (CHO—K1) cell line that recombinantly expressed the long isoform of human D2 receptor (DRD2L PathHunter cells). The D2 receptor DNA sequence was modified to contain a “ProLink” at its C-terminus which allowed complementation with an “enzyme acceptor” (EA)-tagged β-arrestin protein. The recruitment of the O-arrestin by the D2 receptor led to complementation of the ProLink and EA and formation of active β-galactosidase which generated a D2-specific signal that was measured.
Arrestin Agonist Assay: One day prior to testing, a vial of high density stock of DRD2L PathHunter cells was thawed, and 1×10^7 cells diluted into 40 mL of growth media (Ham's F12/10% HI FBS/1% PSG). 20 μL cells per well were seeded directly into assay plates, and the plates were allowed to rest for 1 h at RT before incubating in a plate incubator overnight.
5 μL diluted compound was added to cells in each well, and the assay plate was incubated for 90 min at 37° C. 12.5 μL PathHunter detection reagent was added to each well of the assay plate, which was then covered and incubated for 1 h at RT. The plate was read on an Envision reader using the Luminescence protocol, and the data were exported for analysis.
as §1

T1 sequence (P14416 whole entry, canonical isoform): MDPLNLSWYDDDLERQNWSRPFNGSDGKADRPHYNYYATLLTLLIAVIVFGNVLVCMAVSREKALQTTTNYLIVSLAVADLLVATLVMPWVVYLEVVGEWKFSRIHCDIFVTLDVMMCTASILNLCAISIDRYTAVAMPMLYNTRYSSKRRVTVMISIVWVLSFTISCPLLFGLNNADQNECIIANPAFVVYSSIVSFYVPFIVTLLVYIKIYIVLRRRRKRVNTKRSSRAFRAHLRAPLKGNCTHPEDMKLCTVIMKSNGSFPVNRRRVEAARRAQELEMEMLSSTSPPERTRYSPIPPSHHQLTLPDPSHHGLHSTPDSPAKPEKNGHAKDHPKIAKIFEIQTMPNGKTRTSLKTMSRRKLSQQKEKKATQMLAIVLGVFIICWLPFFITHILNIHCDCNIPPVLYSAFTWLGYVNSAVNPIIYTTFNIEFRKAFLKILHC

Oc1cccc2ccc(OCCCCN3CCN(c4cccc5ccccc45)CC3)nc12 [Compound 6, 2-(4-(4-(naphthalen-1-yl)piperazin-1-yl)butoxy)quinolin-8-ol]
IC50 [1]: 100 to 1000 nM | Emax ([1]; CHO-K1, read-out: β-arrestin (antagonist mode) Imax): 50 to 75% | IC50 [2]: 10 to 100 nM | Emax ([2]; CHO-K1, read-out: cAMP (agonist mode) Emax): 25 to 50% | EC50 [3]: 100 to 1000 nM | Emax ([3]; CHO-K1, read-out: β-arrestin (agonist mode) Emax): 25 to 50%
